Reference: a melting point compilation (Tetko et al.; mined from patent text by program, amines drawn as free bases though some values may be those of a salt)

SMILES	melting point
O=C1c2ccc(Cl)cc2C(=O)N1CC(=O)N1c2ccccc2N(Cc2ccccc2)C(=O)[C@H]2CCC[C@H]21 (relative stereo)	237 to 238 °C
COC(=O)CCC(=O)N(O)Cc1c(C)n(C(=O)c2ccc(Cl)cc2)c2ccc(OC)cc12	158 °C
O=Cc1ccc2c(c1F)OC(c1ccccc1)(c1ccccc1)O2	92 to 94 °C
CC12CC(O)CCC1CCC1C2CCC2(C)C(O)C(N3CCCCC3)CC12 (stereo not drawn)	215 to 219 °C
COc1ccc(C(=O)N2CCC(N3CCc4ccccc43)c3ccccc32)cc1OC (stereo not drawn)	121 to 123 °C
Cc1ccc(C(=O)c2ccc(F)cc2)nc1	127 to 128 °C
COc1ccc(-c2nc(CCl)co2)s1	64 to 65 °C
O=Cc1cccc2c1sc1cc3ccccc3cc12	202 to 204 °C
Cc1nnc2c3[nH]cnc3n(Cc3ccccc3)c(=O)n12	309 to 310 °C
O=c1n(-c2ccc(OCC(F)(F)C(F)F)cc2)cnn1-c1ccc([N+](=O)[O-])cc1	161 to 162 °C
CCN(CC)c1ccc2c(c1)CC(=O)N2	122 to 124 °C
O=C(OCc1ccccc1)C1=C(S(=O)c2ccccc2)CC2CC(=O)N12 (stereo not drawn)	129 to 131 °C
O=C(O)Cc1nc(-c2ccc(F)cc2)oc1-c1ccoc1	208 to 209 °C
CC(=O)S[C@@H]1CCO[C@@H](/C(C)=C/c2ccc(C(F)(F)F)cc2)O1 (relative stereo)	128 to 129 °C
Cc1cccc(C(=O)COc2c(C(=O)c3ccc(Cl)c(C)c3Cl)c(C)nn2C)c1	153 °C
Cc1cc(C2=NNC(=O)Cc3cc4c(cc32)OCO4)ccc1N	164 to 166 °C
Cc1cccc(N2CCN(Cc3n[nH]c4ccccc34)CC2)c1	132 to 134 °C
CCc1cnccc1C[C@@H](O)C(Cl)(Cl)Cl	132 to 134 °C
NC(=O)c1cc([N+](=O)[O-])cnc1C(Cl)Cl	125 to 127 °C
Cc1nc2nc(Cl)c(Cl)nc2s1	58 to 60 °C
CCS(=O)(=O)c1ccc(C(=O)NCc2ccc3c(c2)C(=O)N(C2(C)CCC(=O)NC2=O)C3=O)nc1 (stereo not drawn)	145 to 147 °C
CCC(=O)N1c2ccccc2CC1C(=O)O (stereo not drawn)	173 to 175 °C
COc1cc(CC(=O)O)cc(OCCCc2cn(-c3ccc(C(F)(F)F)cn3)nc2C(C)C)c1	109 to 110 °C
O=C1c2ccccc2C2(Cc3ccccc3)NCCN12 (stereo not drawn)	115 to 117 °C
COc1cc(C=O)ccc1OCC(=O)NCCO[N+](=O)[O-]	117 to 120 °C
O=C(CNc1c(C(=O)O)[nH]c2cc(Cl)cc(Cl)c12)c1ccc([N+](=O)[O-])cc1	270 to 272 °C

SMILES	melting point
NCc1cc(-c2ccnc(Nc3cccc(OC(F)(F)C(F)F)c3)n2)ccn1	64 to 67 °C
COC(=O)COc1cc(C(C)C)c(SC#N)cc1C	67 to 69 °C
COC(Cc1nsc(N)n1)OC	62 to 66.5 °C
O=Cc1cc2cc3c(cc2nc1I)OCCO3	155 to 157 °C
Cn1c(-c2ccccc2)c2ccsc2nc1=O	175 to 181 °C
CCNC(=O)c1cnc(SC)nc1Nc1ccc2[nH]ncc2c1	252 to 254 °C
CCCONC(=O)c1nc(-c2ccc(Cl)c(OC)c2F)cc(N)c1Cl	165 to 168 °C
CS(=O)(=O)NCCCC1COCc2nc3c(N)nc4ccccc4c3n21 (stereo not drawn)	249 to 250 °C
c1cnc2ncn(CCCCc3nnnn3C3CCCCC3)c2c1	143 to 146 °C
COc1c(C)c(N2CCN(c3ccc4c(c3)OC(F)(F)O4)CC2)c(C)c2c1OC(C)(C)C2	149 to 151 °C
[N-]=[N+]=NCCc1cccc2[nH]cc(S(=O)(=O)c3ccccc3)c12	143 °C
CC(C)(C)[Si](C)(C)O[C@H]1C=C(I)C(=O)C1	38.5 °C
COc1c(C=NO)c(=O)n(C)c(=O)n1C	127 to 128 °C
CC1(C)NCC(O)(c2ccccc2)CN1	108 °C
Cc1sc2c(c1C)C(=O)NS2(=O)=O	187 °C
NC(=S)NN=C(CCCCl)c1cccs1	120 to 122 °C
O=C1SCNc2sccc21	153 to 155 °C
Cc1ccc2c(-n3ccnc3)c(F)ccc2n1	159 to 161 °C
CCn1cc(C(=O)O)c(=O)cc1-c1cccc(Cl)c1	212 to 213 °C
CS(=O)(=O)Nc1ccc(-c2ccc(C(=O)O)c(=O)[nH]2)cc1	> 320 °C
COc1cc(OC)nc(NC(=O)NS(=O)(=O)c2ccccc2Cc2nnc(SC)s2)n1	171 to 175 °C
O=C1CN(C(=O)c2ccc(Cl)cc2)N(Cc2ccc(Cl)cc2)C(=O)N1	202 °C
Clc1cc(Cl)c2c(c1)[nH]c1c2ccc2cc[nH]c21	> 250 °C
COc1cccc(C(c2cccc(OC)c2)C(Nc2nc(OC)cc(OC)n2)C(=O)O)c1 (stereo not drawn)	58 to 66 °C
CNS(=O)(=O)Cc1ccc2[nH]cc(CCCN3C(=O)c4ccccc4C3=O)c2c1	58 to 66 °C
N#Cc1cc(Cc2ccncc2)cc(-c2cccc([N+](=O)[O-])c2)c1O	225 °C

SMILES	melting point
CCCc1nc(N(C)c2ccccc2)n2ncc(C(O)c3ccccc3Cl)c2n1 (stereo not drawn)	153 to 155 °C
Nc1cnc(Br)c(N)n1	176 to 178 °C
CC(=O)c1ccc(C2=CCCCCC2)cc1	36 to 38 °C
CC(c1cc2ccccc2o1)N(O)C(N)=O (stereo not drawn)	147 to 150 °C
CNc1nc(-c2cccc3ccccc23)co1	164 to 166 °C
CCCc1cn(C)c2c(=O)[nH]c(-c3cc(S(=O)(=O)N4CCN(CCOC(C)=O)CC4)ccc3OCC)nc12	192 °C
O=C(Nc1ccc2c(c1)CS(=O)(=O)N2)C(=O)N1CCC(Cc2ccc(F)cc2)CC1	183 to 184 °C
CN1CCN(c2ncccc2OC2CCN(c3ccc(C4CCOCC4)cc3)C2=O)CC1 (stereo not drawn)	219 to 248 °C
Brc1ccc(C2(c3ccc(Br)cc3)OCCO2)cc1	103 to 104 °C
CC[C@H](NC(C)=O)c1nc2c(C(F)(F)F)cccc2c(O)c1C(=O)Nc1nccs1	275 °C
COc1c(C)c(C(=O)c2ccc3[nH]c(=O)n(N)c(=O)c3c2)n2ccccc12	220 °C
COc1ccc(C2NCCc3c2[nH]c2ccccc32)cc1F (stereo not drawn)	68 °C
O=S(=O)(F)C=CNc1ccc(Cl)cc1	61 to 63 °C
OCc1ccc(-c2ccccc2)cn1	86 to 87 °C
COC(=O)CSC(C)c1ccc(-c2ccc(OC)cc2)cc1 (stereo not drawn)	59 to 61 °C
CC(C)N1CCN(CCCOc2ccc3nc(C#N)nc(NCC(C)(C)C)c3c2)CC1	103 to 105 °C
CCOC(=O)C(NC(C)=O)(C(=O)OCC)C1=Nc2ccc(Cl)cc2C(c2ccccc2F)=NC1	150 to 180 °C
O=C1COc2ccc(NCC(=O)N3CCC(Cc4ccc(F)cc4)CC3)cc2N1	220 to 223 °C
CCCCOc1ccc(OCC2(O)CN3CCC2CC3)cc1 (stereo not drawn)	110 to 112 °C
O=c1c2ccccc2nc(-c2cc(-c3ccccc3)c(N3CCOCC3)s2)n1-c1ccccc1	218 to 220 °C
CCCCCCCCCCCCCCCCn1c2cc(Cl)ccc2c2ccc(Cl)cc21	82 to 83 °C
COC(=O)N(C)CCCCC(=O)OC[C@@H]1CC(c2ccc(-c3ccc(N4C[C@H](Cn5ccnn5)OC4=O)cc3F)cn2)=NO1	82 °C
Nc1ccc(C2=NN3CCCC3Cc3cc4c(cc32)OCO4)cc1 (stereo not drawn)	153 to 155 °C
C(=C\c1ccc(N2CCCC2)cc1)/CC1CCN(Cc2ccccc2)CC1	115 to 117 °C
CC(=O)C1=C(Nc2ccc(C3=NNC(=O)CC3)cc2)CC(C)(C)CC1=O	212 to 214 °C
C[C@@H](n1cnn(-c2ccc(OC(F)(F)C(F)F)cc2)c1=O)[C@@]1(c2ccc(F)cc2F)CO1	105 to 106 °C

SMILES	melting point
N#CCOc1ccc2cc(-c3csc(-c4ccccc4)n3)ccc2c1Br	157 to 160 °C
CCOC(=O)Cn1cc(-c2ccc(F)cc2)c(-c2ccc(S(C)(=O)=O)cc2)n1	116 to 118 °C
CN(C(=O)c1ccc2nonc2c1)[C@H]1CC[C@H](N=[N+]=[N-])CC1	149 to 150 °C
OCCSc1ccc(O)cc1	70 °C
CON1CCC2(CC1)C(=O)C(c1c(C)cc(C)cc1C)([N+](=O)[O-])C(=O)N2C (stereo not drawn)	127 to 129 °C
CC(C)(/C=C\Cl)C(=O)Nc1ccc(Cl)cc1	127 to 128 °C
O=C(O)Cc1cccc(NC(=O)NC2C(=O)N(CC(=O)N3CCCC3)c3ccccc3N(c3ccccc3F)C2=O)c1 (stereo not drawn)	197 to 199 °C
NC(CF)C(=O)c1ccccc1 (stereo not drawn)	40 to 42 °C
CN1C(=O)CCn2nc(-c3ccc(F)cc3)c(-c3ccncc3)c21	185 to 186 °C
CCCCSCC(=O)c1ccc2[nH]c(=O)[nH]c2c1	211 to 213 °C
Cc1cc(Nc2c(C#N)cnc3cc(-c4csc(C5OCCO5)c4)ccc23)ccc1OCc1ccccn1	194 to 196 °C
COC(=O)c1ccc(C(=O)Nc2ccccc2)cc1	189 to 190 °C
COC(=O)c1sc(C)cc1N1N=C2c3cc(C)sc3SCC2CC1=O (stereo not drawn)	164 to 166 °C
CC1=C(C(=O)OC(C)C)C(c2cccc([N+](=O)[O-])c2)N(C(=O)NCc2ccccc2)C(=O)N1 (stereo not drawn)	184 to 185 °C
CCOC(=O)CN1C(=O)[C@@H](NC(=O)OC(C)(C)C)CCc2ccccc21	99 to 101 °C
Cc1nc2c(Cl)cc(F)c([N+](=O)[O-])c2s1	130 to 132 °C
Cc1c2c(c(CCC=O)c(C(C)C)c1OCc1ccccc1)OC(C)(C)C2	88 to 89 °C
O=C(O)c1cccnc1NCCSCc1nccs1	133 to 134 °C
OC(COc1ccccc1-c1nc2ccccc2s1)CN1CCN(C(c2ccccc2)c2ccccc2)CC1 (stereo not drawn)	152 to 155 °C
CC(C)CC(C(=O)c1cccc(Cl)c1)c1ccccc1NC(C)(C)C (stereo not drawn)	172 to 174 °C
CN(C)c1ccc2c(c1)C(=O)CC(c1ccc(OCc3ccccc3)cc1)=N2	283 to 285 °C
ClCc1ccccc1COc1ccc(C=Cc2ccc3ccccc3n2)cc1	127 to 128 °C
COc1ccc(P2(=O)c3ccccc3CN2c2ccccc2)c(OC)c1 (stereo not drawn)	173 to 175 °C
COC(=O)CCCCc1cc2cc(C(F)(F)F)ccc2n1S(=O)(=O)c1cccc(C(C)(C)C)c1	77 °C
O=[N+]([O-])c1ccc2oc(-c3ccc(Cl)cc3)nc2c1	217 to 218 °C
